# Reference: paper PMC5321434, “Dihydrobenz[e][1,4]oxazepin-2(3H)-ones, a new anthelmintic chemotype immobilising whipworm and reducing infectivity in vivo” (PLoS Neglected Tropical Diseases, 2017)
# Tested on: adult T. muris
# Experiment: Ex vivo adult T. muris automated motility assay (primary/secondary screen at 100 μM and dose-response)
# Design: species or system Trichuris muris
# Details: 100 μM; for COMBINED_SCREEN_ACTIVITY: combined primary and secondary screen minus log fold change in movement, adult T. muris; for PRIMARY_SCREEN_MINUS_LOG_FOLD_CHANGE_MOVEMENT: primary screen
# Protocol: Severe combined immune deficiency (SCID) mice were bred in the Biological Services Facility at the University of Manchester. Both male and female SCID mice were infected with a high dose of 200 infective embryonated T. muris eggs via oral gavage. At day 35 post-infection, groups of 5 mice were killed and their […] colons removed. Guts were opened longitudinally, washed with pre-warmed Roswell Park Memorial Institute (RPMI) 1640 media supplemented with penicillin (500U/ml) and streptomycin (500μg/ml) and adult T. muris worms gently removed using fine forceps. Worms removed from SCID mice were maintained in RPMI-1640 media supplemented with penicillin (500U/ml) and streptomycin (500μg/ml) at approximately 37°C and studied on the same day. Using fine forceps, individual live worms were placed into 96 well plates containing 75μl of RPMI-1640 medium supplemented with penicillin (500U/ml) and streptomycin (500μg/ml) plus 1% final concentration of DMSO or compound dissolved in DMSO. In the primary screen the test compound concentration was 100μM. Plates were then incubated at 37°C, 5% CO2, and motility was analysed after 24 hours. Worm movement was quantified using an automated motility assay. This system gives an estimate of worm movement in each well by thresholding and quantifying pixel intensity variance over time. An earlier version of this system has been previously described. One adult T. muris worm was used per well, with one well per compound in each replicate of the primary screen. The primary screen was repeated each week for a period of four weeks giving four independent biological replicates from separate parasite batches for each compound. Dose-response curves were calculated with the four factor log-logistic model using the R package drc. The primary screen was carried out at 100μM final concentration. Assay plates were assigned unique IDs and statistical analysis was performed without knowledge of compound identities using R scripts. Once hit wells were identified, well/plate positions were mapped to compound identities using DataWarrior [28]. […] Compounds identified as having encouraging activity from the DMSO solution samples were then resynthesized for confirmatory testing.
Structure (SMILES),COMBINED_SCREEN_ACTIVITY,PRIMARY_SCREEN_MINUS_LOG_FOLD_CHANGE_MOVEMENT (adult T. muris motility),"SECONDARY_SCREEN_MINUS_LOG_FOLD_CHANGE_MOVEMENT (secondary screen, adult T. muris motility)"
CN1C(=O)COCc2c(-c3cc(F)cc(Cl)c3)cccc21 [Compound 34],-1.392,-1.392,
O=C1COCc2ccc(-c3cccc(F)c3)cc2N1CC1CC1 [Compound 35],10.5493,10.5493,
COCCN1C(=O)COCc2ccc(-c3ccccc3C)cc21 [Compound 36],-1.658,-1.658,
COCCN1C(=O)COCc2ccc(-c3cccc(O)c3)cc21 [Compound 37],-1.788,-1.788,
COCCN1C(=O)COCc2ccc(-c3cccc(F)c3)cc21 [Compound 38],-1.255,-1.255,
CC(C)N1C(=O)COCc2ccc(-c3cc(F)cc(F)c3)cc21 [Compound 39],3.736,3.736,
N#Cc1cccc(-c2ccc3c(c2)N(CC2CC2)C(=O)COC3)c1 [Compound 40],-0.6738,-0.6738,
O=C1COCc2ccc(-c3cccc(CO)c3)cc2N1CC1CC1 [Compound 41],-1.108,-1.108,
COc1ccccc1-c1ccc2c(c1)N(CC1CC1)C(=O)COC2 [Compound 42],1.209,1.209,
COc1ccc(-c2ccc3c(c2)N(CC2CC2)C(=O)COC3)cc1 [Compound 43],3.877,3.877,
COc1ccc(-c2ccc3c(c2)N(CC2CC2)C(=O)COC3)cn1 [Compound 44],-1.021,-1.021,
COCCN1C(=O)COCc2ccc(-c3ccccc3OC)cc21 [Compound 45],-1.409,-1.409,
COCCN1C(=O)COCc2ccc(-c3ccc(OC)cc3)cc21 [Compound 46],-1.143,-1.143,
O=C1COCc2ccc(-c3ccc(Cl)cc3)cc2N1CC1CC1 [Compound 47],1.5592,1.5592,
O=C1COCc2ccc(-c3cc(F)cc(F)c3)cc2N1CC1CC1 [Compound 48],1.875,1.875,
O=C1COCc2ccc(-c3ccncc3)cc2N1Cc1ccccc1 [Compound 49],-0.743,-0.743,
O=C1COCc2ccc(-c3cccnc3)cc2N1Cc1ccccc1 [Compound 50],0.07509,0.07509,
O=C1COCc2cc(-c3cccnc3)ccc2N1Cc1ccccc1 [Compound 51],-0.6528,-0.6528,
O=C1COCc2cc(-c3ccncc3)ccc2N1Cc1ccccc1 [Compound 52],0.9757,0.9757,
COCCN1C(=O)COCc2ccc(-c3ccc(Cl)cc3)cc21 [Compound 53],-0.5764,-0.5764,
O=C1COCc2cc(Br)ccc2N1Cc1ccccc1 [Compound 54],0.1915,0.1915,
O=C1COCc2c(Br)cccc2N1Cc1ccccc1 [Compound 55],1.386,1.386,
COCCN1C(=O)COCc2ccc(-c3cc(F)cc(F)c3)cc21 [Compound 56],-1.686,-1.686,
Cn1cc(-c2ccc3c(c2)COCC(=O)N3Cc2ccccc2)cn1 [Compound 58],0.8104,0.8104,
Cn1cc(-c2ccc3c(c2)N(Cc2ccccc2)C(=O)COC3)cn1 [Compound 59],-0.5338,-0.5338,
O=C1COCc2ccc(-c3ccncc3)cc2N1CC1CCCCC1 [Compound 60],7.742,7.742,
O=C1COCc2ccc(-c3cccnc3)cc2N1CC1CCCCC1 [Compound 61],11.7341,10.8493,12.6188
O=C(O)c1cccc(-c2ccc3c(c2)N(CC2CC2)C(=O)COC3)c1 [Compound 62],-1.551,-1.551,
